Measured values from US20130039852A1, “METHODS OF TARGETING CELLS FOR DIAGNOSIS AND THERAPY” (NORTHEASTERN UNIVERSITY, priority 2008, published 2013).
Converted amounts (≈) assume the structure as drawn.

Legend:
[1] = test system: BT-20 human mammary tumor cells; assay: In vitro assay for tumorotoxicity in BT-20 human mammary tumor cells; type: cell-based; details: BT-20 cells, 10 μg/ml, 3 hrs; compared with Dox-DPG and Dox-DPG-BiSpAb
Method: BT-20 human mammary tumor cells were grown in 10% Fetal Clone DEME. When the cells reached about 80% confluence, the cells were harvested by trypsin digestion and replated in […] culture plates at 400,000 cells per well. After 24 hrs, the culture media was removed and in one set of wells was replaced with media containing 10 μg/ml of 2C5-6C31H3 BiSpAb (prepared as described in Example 1). In two other sets, the media was replaced with media lacking 2C5-6C31H3 BiSpAb. Each set was prepared in triplicate. After 24 hrs of incubation, the medium was removed and washed 3× with medium lacking antibody. Medium containing 10 μg/ml of free Dox was then added to a medium-only set of wells, and media containing 10 μg/ml of Dox-DPG was added to one set with and one set without 2C5-6C31H3 BiSpAb. The cultures were incubated for either 3 hrs, 12 hrs, or 24 hrs, at which times the cells in the media were collected and viability was determined by counting cells with Tryptan Blue exclusion criteria in a hemocytometer.

PC-3 cancer cells = assay: In vitro therapeutic efficacy in PC-3 cell cultures; type: cell-based, human; details: 10 μg Bom-BiSpCx 24 hr then 10 μg/ml Dox-DPG, or 10 μg/ml free Dox; Trypan blue
Method: PC-3 cancer cells were grown in 10% fetal clone-DMEM until they reached about 80% confluence. The cells were then harvested by trypsin digestion and re-plated in 6 well culture plates at 40,000 cells per well. After attaining 70% confluency, the medium was replaced with or without 10 μg of Bom-BiSpCx (prepared as described in Example 3) in triplicates to quadruplicates. After 24 hr of incubation at 37° C. in 5% CO2, the media was changed to media containing 10 μg/ml of free Dox or Dox-DPG (prepared as described in Example 2). The cells were further incubated at 37° C. for 0-3 hr, 3-12 hr, or 12-24 hr, at which time the cells in each well were collected and the number of live and dead cells determined by Trypan blue exclusion test in a Hemocytometer. Negative control cells were treated with monospecific 2C5 antibody, […] antibody, Bombesin, or culture media alone. Positive control cells were treated with 10 μg/ml of free Dox. Each assay was repeated at least 3 times in triplicate or quadruplicate.

[2] = test system: H9C2 embryonic rat cardiocytes; assay: IC50 in H9C2 embryonic cardiocytes, Trypan Blue exclusion; type: cell-based; details: 24 hr
Method: H9C2 embryonic rat cardiocytes cultured in 10% Fetal Clone DMEM (F-DMEM) at 37° C. in 25 ml sterile culture flasks until 90% confluent in triplicate were dissociated by Trypsin digestion. The cells were washed in F-DMEM. Aliquots of 40,000 H9C2 cells in 1 ml F-DMEM were delivered to each well of a 6 well culture plate. After incubation for 24 hr, the culture medium was removed and fresh medium containing 2.5 μg/ml, 5 μg/ml, 10 μg/ml, 15 μg/ml, and 30 μg/ml of Dox-DPG or free Dox were added and incubated at 37° C. for 24 hr. Cell death was assessed by Trypan Blue exclusion test.

anti-Bombesin antibody = assay: ELISA for bispecificity using anti-Bombesin capture antibody and DTPA-HRP; type: binding; details: 1 μg/ml, captured by anti-Bombesin antibody
Method: Intact 6C31H3 anti-DTPA antibody was modified with 100× molar excess iminothiolane. Bombesin was modified with 24× molar excess N-hydroxy-succinimide ester of bromoacetic acid (as described in Varvarigou et al., Can. Biother. Radiopharm. 19:219-229 (2004); and Bernatowicz et al., Anal. Biochem. 155:95-102 (1986)). […] The antibody activity and Bombesin concentrations were assessed by ELISA using either DTPA-BSA or anti-Bombesin antibody and compared to standard curves. Specifically, the Bombesin concentration of serial dilutions of Bom-BiSpCx starting at 1 μg/ml was determined by ELISA using Bombesin (1 μg/ml) and 6C31H3 antibody (1 μg/ml) as controls. Bombesin of the Bom-BiSpCx (1 μg/ml) was captured by an anti-Bombesin antibody, resulting in a positive reaction with DTPA-HRP (which is specific for the […] antibody of the Bom-BiSpCx).

COc1cccc2c1C(=O)c1c(O)c3c(c(O)c1C2=O)C[C@@](O)(C(=O)CO)C[C@@H]3O[C@H]1C[C@H](N)[C@H](O)[C@H](C)O1 [doxorubicin]
Tumor cell killing, early stage of incubation [1]: more effective in killing tumor cells
Death of PC-3 cancer cells (PC-3 cancer cells): 68.6%
IC50 (cardiotoxicity) [2]: 1.02 µg/mL (≈ 1.88 µM)

O=C(O)CN(CCN(CC(=O)O)CC(=O)O)CCN(CC(=O)O)CC(=O)O [DTPA, diethylene triaminepentaacetic acid]
Reaction with DTPA-HRP, O.D. 490 nm (anti-Bombesin antibody): 0.0007±0.0025
